{
  "source": "patent US20190185865A1",
  "about": "“USE OF PROKARYOTIC TRANSCRIPTIONAL ACTIVATORS AS METABOLITE BIOSENSORS IN EUKARYOTIC CELLS” (Danmarks Tekniske Universitet, priority 2016, published 2019)",
  "key": {"MdcR": {"test_system": "MdcR", "experiment": "Malonic acid induction of MdcR-mediated GFP expression in yeast", "type": "cell-based", "settings": "MdcR from TDH3 promoter, MAE1 transporter; 10 mM malonic acid", "description": "(§1) Events were analyzed using FlowJo software (TreeStar Inc.).\n(§2) The genetic device developed in this study represents to the best of our knowledge the first example of transplanting a prokaryotic transcriptional activator into a eukaryotic chassis and successfully using it to activate gene expression without the need for modifying the protein beyond codon optimization. […] To test the generality of the biosensor design for onboarding other small-molecule binding transcriptional activators as biosensors in yeast we selected four other candidates from the LTTR family; FdeR from Herbaspirillum seropedicae, PcaQ from Sinorhizobium meliloti, ArgP from Escherichia coli, and MdcR from Klebsiella pneumonia, with co-inducers naringenin, protocatechuic acid (PCA), L-arginine, and malonic acid, respectively. In this proof-of-principle study we selected the four candidates based on a minimal set of information, including knowledge about operator sequences, experimental evidence for ligand-inducible control of target operons, and their mode-of-action within native chassis (ie. activation, FIG. 1). Furthermore all of these metabolites can passively diffuse across the yeast plasma membrane, with the exception of malonic acid, which requires the expression of the dicarboxylic acid transporter MAE1 from Schizosaccharomyces pombe. […]"}, "[1]": {"experiment": "Solubility in growth medium", "type": "physicochemical", "settings": "aqueous buffer, read-out: concentrations of naringenin soluble in growth medium"}, "FdeR": {"test_system": "FdeR", "experiment": "Naringenin induction of FdeR-mediated GFP expression in yeast", "type": "cell-based, Saccharomyces cerevisiae", "description": "Strains, chemicals and media. Saccharomyces cerevisiae CEN.PK102-5B (MATa ura3-52 his3Δ1 leu2-3/112 MAL2-8^c SUC2), CEN.PK113-5A (MATa, trp1 his3Δ1 leu2-3/112 MAL2-8^c SUC2) and CEN.PK113-7D (wild type, MATa MAL2-8^c SUC2) strains were obtained from Peter Kotter (Johann Wolfgang Goethe-University Frankfurt, Germany). In principal any other yeast strains may be used, such as one obtained from public repository EuroScarf. EasyClone plasmids used in this work are described in Jensen, N. B. et al. EasyClone: method for iterative chromosomal integration of multiple genes in Saccharomyces cerevisiae. FEMS Yeast Res. 14, 238-48 (2014). Escherichia coli strain DH5a was used as a host for cloning and plasmid propagation. The chemicals and Pfu TURBO DNA polymerase were commercially obtained (Sigma-Aldrich and Agilent Technologies Inc., respectively). All acids used were >97% in purity. S. cerevisiae cells were grown at 30° C. in synthetic complete medium as well as drop-out media and agar plates were prepared using pre-mixed drop-out powders (Sigma-Aldrich). Mineral medium was freshly prepared as described previously. For all media containing diacids, 1.4 mM of the individual diacids were dissolved in mineral medium and pH adjusted to 4.5 before sterile filtration. For CCM several dilutions were made to examine the performance of the CCM biosensor. For naringenin, mineral medium was supplemented with 0, 0.05, 0.10 or 0.20 mM naringenin, dissolved in ethanol, the final ethanol concentration for each medium was 2% (v/v), and the final pH of the medium was adjusted to 6.0. E. coli cells were grown at 37° C. in Luria-Bertani (LB) medium supplemented with 100 μg/mL ampicillin.\nas §1\nThe genetic device developed in this study represents to the best of our knowledge the first example of transplanting a prokaryotic transcriptional activator into a eukaryotic chassis and successfully using it to activate gene expression without the need for modifying the protein beyond codon optimization. […]"}, "ArgP": {"target": "T1, ArgP (Escherichia coli, UniProt P0A8S1)", "T1 construct": "expressed in transfected cells; host or cells: Saccharomyces cerevisiae CEN.PK113-5A; REV1p or TDH3p, chromosomal integration (TISNO-66/-73)", "experiment": "L-arginine induction of ArgP-mediated GFP expression in yeast", "type": "cell-based", "settings": "30 mM L-arginine", "description": "as §1, §2"}, "209 bp_CYC1p_T1 promoter": {"test_system": "209 bp_CYC1p_T1 promoter", "experiment": "LTTR-mediated activation of GFP expression from 209 bp_CYC1p_T1 reporter promoter in yeast, without ligand", "type": "cell-based, Saccharomyces cerevisiae", "settings": "LTTR expressed from weak REV1p promoter", "description": "as §1, §2"}, "[2]": {"test_system": "209 bp_CYC1p_T1 promoter with MdcO or ArgO", "experiment": "Cross-reactivity of LTTRs ArgP and MdcR with operators MdcO and ArgO (flow cytometry)", "type": "cell-based, Saccharomyces cerevisiae", "settings": "ArgP and MdcR with 209 bp_CYC1p_T1 carrying MdcO or ArgO", "description": "Many of the characterized LTTRs regulate operons by binding prototypic LTTR box patterns 5′-T-N11-A-3′ and 5′-TTA-N7/8-GAA-3′. In addition to transcriptional orthogonality (FIG. 3b), we therefore further tested if individual LTTRs would cross-react with operators for another LTTR. For this purpose, we expressed LTTRs ArgP and MdcR together with the 209 bp_CYC1p_T1 promoter with operators for MdcR (herein MdcO) or ArgP (herein ArgO) driving the expression of GFP. As controls we tested GFP expression from 209 bp_CYC1p_T1 promoter with MdcO or ArgO without expression of LTTRs. […] This is in agreement with another study on cross-reactivity between promoter and transcriptional regulators of the TetR family, and the fact that LTTR residues in both the conserved N-terminal DNA-binding domains and the divergent EBDs are important for DNA-binding."}, "yeast transcriptome": {"test_system": "yeast transcriptome", "experiment": "Transcriptome analysis (RNA-seq) of yeast with or without BenM^H110R, F211V, Y286N", "type": "cell-based, Saccharomyces cerevisiae", "settings": "24 h cultivation in the presence of CCM", "description": "To study the impact of ligand-induced BenM on genome-wide gene expression, triplicate cultures of strains MeLS0138 and MeLS0284 were grown for 24 h at 30° C. in 50 ml mineral medium pH 4.5 with 1.4 mM CCM. […] Briefly, 15 ml samples of the six cultures were harvested into a pre-chilled 50 ml tube with crushed ice and then immediately centrifuged at 4° C., 4000×rpm for 5 min. Subsequently, the pellets were resuspended in 2 ml of RNAlater® Solution (Ambion, Life Technologies) and incubated on ice for 1 h. Next, cells were pelleted by centrifugation (12,000×rpm for 10 s) and transferred to liquid nitrogen, and stored at −80° C. until further analysis. Total RNA extraction was performed using RNeasy® Mini Kit (QIAGEN). […] The quantity and quality of the RNA samples were measured using Qubit 2.0 Fluorometer using the Qubit RNA BR Assay (Thermo Fisher Scientific) and Agilent 2100 Bioanalyzer using the RNA 6000 Nano Kit (Agilent Technologies), respectively. For sequencing we used 3 μg of total RNA as input for TruSeq® Stranded mRNA Sample Preparation kit prior to sequencing on the MiSeq System using MiSeq Reagent Kit v3 150 cycles at a 2×75 bp read length configuration (Illumina) obtaining 38 M reads. […]"}},
  "data": [
    {"molecule": "O=C(O)CC(=O)O", "note": "[malonic acid]", "values": [
      {"measurement": "induction of GFP expression upon addition of cognate inducer", "setting": "MdcR", "value": "further induce GFP expression"}
    ]},
    {"molecule": "O=C1C[C@@H](c2ccc(O)cc2)Oc2cc(O)cc(O)c21", "note": "[naringenin]", "values": [
      {"measurement": "solubility", "setting": "[1]", "value": "< 200", "unit": "µM"},
      {"measurement": "induction of GFP expression upon addition of cognate inducer", "setting": "FdeR; FdeR from TDH3 promoter, 0.2 mM naringenin", "value": "further induce GFP expression"},
      {"measurement": "maximum increase in GFP expression", "setting": "FdeR; FdeR from strong TDH3 promoter, 0.2 mM naringenin, 24 h", "value": 1.7, "unit": "fold"},
      {"measurement": "induction of GFP expression", "setting": "FdeR; FdeR from weak REV1 promoter, any of the tested naringenin concentrations", "value": "did not support induction of GFP expression"}
    ]},
    {"molecule": "N=C(N)NCCC[C@H](N)C(=O)O", "note": "[L-arginine]", "values": [
      {"measurement": "ligand-inducible increase in GFP expression", "setting": "ArgP; ArgP expression controlled by REV1p", "value": "significant ligand-inducible increase in GFP expression"},
      {"measurement": "induction of GFP expression upon addition of cognate inducer", "setting": "ArgP; ArgP from TDH3 promoter", "value": "further induce GFP expression"}
    ]},
    {"molecule": "ArgP: LTTR transcriptional activator from Escherichia coli, co-inducer L-arginine (protein, UniProt P0A8S1 1-297, looked up) HTH-type transcriptional …: MKRPDYRTLQALDAVIRERGFERAAQKLCITQSAVSQRIKQLENMFGQPLLVRTVPPRPTEQGQKLLALLRQVELLEEEWLGDEQTGSTPLLLSLAVNADSLATWLLPALAPVLADSPIRLNLQVEDETRTQERLRRGEVVGAVSIQHQALPSCLVDKLGALDYLFVSSKPFAEKYFPNGVTRSALLKAPVVAFDHLDDMHQAFLQQNFDLPPGSVPCHIVNSSEAFVQLARQGTTCCMIPHLQIEKELASGELIDLTPGLFQRRMLYWHRFAPESRMMRKVTDALLDYGHKVLRQD", "values": [
      {"measurement": "activation of GFP expression compared to yeast cells without expression of an LTTR", "setting": "209 bp_CYC1p_T1 promoter", "value": 2.2, "unit": "×"},
      {"measurement": "cross-reaction of LTTR with operator for another LTTR", "setting": "[2]", "value": "specificity between LTTR transcriptional activators and their inferred operator"}
    ]},
    {"molecule": "BenM^H110R, F211V, Y286N (protein, UniProt O68014 1-304, looked up, variant H110R F211V Y286N) HTH-type transcriptional …: MELRHLRYFVAVVEEQSFTKAADKLCIAQPPLSRQIQNLEEELGIQLLERGSRPVKTTPEGHFFYQYAIKLLSNVDQMVSMTKRIASVEKTIRIGFVGSLLFGLLPRIIRLYRQAHPNLRIELYEMGTKAQTEALKEGRIDAGFGRLKISDPAIKRTLLRNERLMVAVHASHPLNQMKDKGVHLNDLIDEKILLYPSSPKPNFSTHVMNIVSDHGLEPTKINEVREVQLALGLVAAGEGISLVPASTQSIQLFNLSYVPLLDPDAITPIYIAVRNMEESTYIYSLNETIRQIYAYEGFTEPPNW", "values": [
      {"measurement": "average GFP transcript abundance, strain MeLS0284 compared to strain MeLS0138", "setting": "yeast transcriptome", "value": "approximately 27 fold"},
      {"measurement": "decrease in expression level of TCS3", "setting": "yeast transcriptome; P<0.05, >2-fold cut-off", "value": 2.3, "unit": "×"}
    ]}
  ]
}
